Some targets named below: Cytochrome P450 2C9 (Homo sapiens, UniProt P11712); Cytochrome P450 3A4 (Homo sapiens, UniProt P08684); Cytochrome P450 2D6 (Homo sapiens, UniProt P10635).
For the next data set, the target named is CYP2D6 (Homo sapiens, UniProt P10635). The experiment in a line: in vitro.
In another data set the test system is PBMC. The conditions noted are these: human.
The nature of data set [1]: in vitro. The conditions noted are these: human, HuH7 cells.
A further data set deals with T1, Cytochrome P450 1A2 (Homo sapiens, UniProt P05177).
T1 sequence (P05177 whole entry): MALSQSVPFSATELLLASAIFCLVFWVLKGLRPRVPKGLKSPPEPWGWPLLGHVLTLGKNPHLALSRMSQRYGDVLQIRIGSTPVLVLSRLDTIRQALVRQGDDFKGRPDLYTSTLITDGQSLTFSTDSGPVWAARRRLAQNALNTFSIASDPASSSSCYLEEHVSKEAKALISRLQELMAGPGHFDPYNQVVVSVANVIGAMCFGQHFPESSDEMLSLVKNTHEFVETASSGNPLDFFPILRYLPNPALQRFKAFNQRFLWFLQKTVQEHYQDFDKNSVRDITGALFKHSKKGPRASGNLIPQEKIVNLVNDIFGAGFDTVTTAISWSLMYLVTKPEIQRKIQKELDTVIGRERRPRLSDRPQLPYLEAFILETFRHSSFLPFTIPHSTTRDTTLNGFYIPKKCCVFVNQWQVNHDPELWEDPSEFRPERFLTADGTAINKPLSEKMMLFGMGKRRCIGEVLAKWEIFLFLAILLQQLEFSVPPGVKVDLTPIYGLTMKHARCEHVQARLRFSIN

In a further data set the test system is Vero. To be noted: chlorocebus sabaeus.
Another data set concerns the target CYP2C9 (Homo sapiens, UniProt P11712). Kind of data set: in vitro.
The target in the next data set is CYP3A4 (Homo sapiens, UniProt P08684). Kind of data set: in vitro.
Chain of CYP3A4 (P08684 whole entry): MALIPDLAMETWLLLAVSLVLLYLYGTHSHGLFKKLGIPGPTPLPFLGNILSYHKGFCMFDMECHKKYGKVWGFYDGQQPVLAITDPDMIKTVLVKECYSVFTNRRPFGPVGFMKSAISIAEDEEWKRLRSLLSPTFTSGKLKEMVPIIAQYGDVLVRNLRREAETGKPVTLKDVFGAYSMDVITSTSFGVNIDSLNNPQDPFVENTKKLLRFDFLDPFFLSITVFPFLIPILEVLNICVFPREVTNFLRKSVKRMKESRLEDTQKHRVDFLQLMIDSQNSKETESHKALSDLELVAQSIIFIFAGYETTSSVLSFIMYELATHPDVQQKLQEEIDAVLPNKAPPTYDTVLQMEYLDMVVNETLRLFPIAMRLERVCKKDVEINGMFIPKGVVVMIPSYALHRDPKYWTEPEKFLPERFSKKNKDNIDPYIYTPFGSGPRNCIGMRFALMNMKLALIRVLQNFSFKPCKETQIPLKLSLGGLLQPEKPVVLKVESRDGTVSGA
A further data set relates to Hepatitis C virus. The experiment in a line: microbe, parasite or virus in culture. To be noted: genotype 1b, Huh-7.
The next data set concerns the target T2, CYP1A2 (Homo sapiens, UniProt P05177).
T2 sequence (P05177 whole entry): T1 sequence (P05177 whole entry)
The experiment in a line: in vitro.

The next data set relates to CCRF-CEM. To be noted: human.
A short description of data set [2]: in vitro. The conditions noted are these: human, pbmc.
Data set [3] in a line: in vitro. The conditions noted are these: human, CEM cells.
A short description of data set [4]: in vitro. To be noted: chlorocebus sabaeus, Vero cells.

Chain of Cytochrome P450 2C9 (P11712 whole entry): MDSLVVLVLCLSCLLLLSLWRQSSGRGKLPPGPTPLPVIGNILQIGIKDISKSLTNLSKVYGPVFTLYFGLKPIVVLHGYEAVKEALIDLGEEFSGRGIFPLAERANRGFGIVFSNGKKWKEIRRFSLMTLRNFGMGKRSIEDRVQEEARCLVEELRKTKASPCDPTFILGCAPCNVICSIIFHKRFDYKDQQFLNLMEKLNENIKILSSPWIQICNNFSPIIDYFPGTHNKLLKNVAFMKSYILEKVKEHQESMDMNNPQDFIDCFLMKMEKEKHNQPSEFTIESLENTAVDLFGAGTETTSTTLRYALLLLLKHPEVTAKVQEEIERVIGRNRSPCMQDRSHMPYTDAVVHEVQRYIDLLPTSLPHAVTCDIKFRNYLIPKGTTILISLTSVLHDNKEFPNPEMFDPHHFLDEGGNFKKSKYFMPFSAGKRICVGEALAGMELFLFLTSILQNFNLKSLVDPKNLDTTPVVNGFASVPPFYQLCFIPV
Chain of CYP2C9 (P11712 whole entry): as above
Chain of Cytochrome P450 2D6 (P10635 whole entry): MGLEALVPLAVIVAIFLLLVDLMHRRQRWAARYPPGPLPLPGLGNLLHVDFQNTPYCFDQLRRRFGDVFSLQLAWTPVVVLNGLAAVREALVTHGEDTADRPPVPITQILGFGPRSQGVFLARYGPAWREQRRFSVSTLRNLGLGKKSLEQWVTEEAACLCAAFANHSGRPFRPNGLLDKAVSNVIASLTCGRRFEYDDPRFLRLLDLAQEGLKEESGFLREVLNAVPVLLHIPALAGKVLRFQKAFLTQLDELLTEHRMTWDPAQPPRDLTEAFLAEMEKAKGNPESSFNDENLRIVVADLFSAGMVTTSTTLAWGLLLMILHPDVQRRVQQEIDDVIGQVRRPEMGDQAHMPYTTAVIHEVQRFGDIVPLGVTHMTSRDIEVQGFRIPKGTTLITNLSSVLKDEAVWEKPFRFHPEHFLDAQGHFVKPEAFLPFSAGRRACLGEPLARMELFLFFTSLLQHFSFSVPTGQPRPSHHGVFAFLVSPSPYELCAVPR
Chain of CYP2D6 (P10635 whole entry): as above
Chain of Cytochrome P450 3A4 (P08684 whole entry): as the sequence (P08684 whole entry) above

On to `COC(=O)N[C@H](C(=O)N1CCC[C@H]1c1ncc(-c2ccc(N=[N+]=[N-])cc2)[nH]1)C(C)C`, for which the IC90 (commonly the concentration needed for an effect of 90%) was over 100 µM at CYP2D6, over 100 µM against CYP2C9, 96.1 µM against CYP3A4 and over 100 µM on CYP1A2. The IC50 (commonly the concentration at which inhibition is half-maximal) was over 100 µM on Cytochrome P450 2C9, over 100 µM on Cytochrome P450 1A2, 5.1 µM at Cytochrome P450 3A4 and over 100 µM against Cytochrome P450 2D6. In addition, the CC50 is over 100 µM in the data set with PBMC, over 1 µM in the data set “in vitro [1]”, over 100 µM in the data set on Vero and over 100 µM in the data set with CCRF-CEM. Moreover, in the data set with Hepatitis C virus, the EC50 (in general, the concentration needed to bring the measured effect to its halfway point) came to 0.008 µM. The EC90 (usually the point of the concentration-response curve where the effect stands at 90%) in the data set on Hepatitis C virus turned out to be 0.052 µM.
For the compound `COC(=O)N[C@H](C(=O)N1CCC[C@H]1c1nc(Br)c(-c2ccc(N=[N+]=[N-])cc2)[nH]1)C(C)C`, the 90% effect concentration (IC90) was over 100 µM at CYP2D6, over 100 µM against CYP2C9, 46.1 µM at CYP3A4 and over 100 µM against CYP1A2. The half-maximal inhibitory concentration (IC50) against Cytochrome P450 2C9 was found to be 50.5 µM; at Cytochrome P450 1A2 it was 80.9 µM; on Cytochrome P450 3A4, 1.5 µM; at Cytochrome P450 2D6, 50.5 µM. In addition, the CC50 with PBMC was 35 µM; in the data set “in vitro [1]” it was over 1 µM; in the data set with Vero, 16 µM; in the data set with CCRF-CEM, 52 µM. For the same compound, the response in the data set on Hepatitis C virus was half-maximal at 0.0007 µM (EC50). This compound yielded an EC90 with Hepatitis C virus of 0.0029 µM.
Regarding `COC(=O)N[C@H](C(=O)N1CCC[C@H]1c1nc(-c2ccc(-c3ccc(C(F)(F)F)cc3)cc2)c[nH]1)C(C)C`, the IC90 against CYP2D6, at CYP2C9, against CYP3A4 and on CYP1A2 was over 100 µM in each case. In addition, the IC50 at Cytochrome P450 2C9 worked out at 9.1 µM; against Cytochrome P450 1A2, 82.9 µM; at Cytochrome P450 3A4 it was 6.5 µM; on Cytochrome P450 2D6 it was 62.1 µM. Further, the CC50 in the data set on PBMC was over 100 µM; in “in vitro [1]” it was over 1 µM; with Vero it was 14 µM; in the data set with CCRF-CEM it was 12 µM. This compound also displayed an EC50 with Hepatitis C virus of 0.0046 µM. The EC90 with Hepatitis C virus worked out at 0.0096 µM.
Consider `COC(=O)N[C@H](C(=O)N1CCC[C@H]1c1ncc(-c2ccc(-c3ccccc3C(F)(F)F)cc2)[nH]1)C(C)C`, for which the CC50 was 24 µM in the data set “in vitro [2]”, 75 µM in the data set “in vitro [3]”, over 1 µM in “in vitro [1]” and 13 µM in the data set “in vitro [4]”. The EC50 in the data set with Hepatitis C virus was over 0.1 µM.
Taken in the same sequence, the figures for `COC(=O)N[C@H](C(=O)N1CCC[C@H]1c1ncc(-c2ccc(-c3cccc(C(F)(F)F)c3)cc2)[nH]1)C(C)C` were 44 µM, 32 µM, over 1 µM, 12 µM and over 0.1 µM.
The matching figures for `COC(=O)N[C@H](C(=O)N1CCC[C@H]1c1ncc(-c2ccc(-c3ccc(OC(F)(F)F)cc3)cc2)[nH]1)C(C)C`: 11 µM, 10 µM, over 1 µM, 10 µM and over 0.1 µM.
For the compound `COC(=O)N[C@H](C(=O)N1CCC[C@H]1c1ncc(-c2ccc(-c3ccc(O)cc3)cc2)[nH]1)C(C)C`, the CC50 was 70 µM in “in vitro [2]”, 55 µM in “in vitro [3]”, over 1 µM in the data set “in vitro [1]” and 13 µM in the data set “in vitro [4]”. In the data set with Hepatitis C virus, this compound came in with an EC50 of 0.005 µM. In the data set with Hepatitis C virus, the EC90 is 0.017 µM.
On to `COC(=O)N[C@H](C(=O)N1CCC[C@H]1c1nc(-c2ccc(-c3ccc(CO)cc3)cc2)c[nH]1)C(C)C`, for which the IC90 on CYP2D6, on CYP2C9, against CYP3A4 and against CYP1A2 was over 100 µM each time. The IC50 on Cytochrome P450 2C9 is 31.2 µM; against Cytochrome P450 1A2, 56.7 µM; against Cytochrome P450 3A4, 6.9 µM; on Cytochrome P450 2D6, over 100 µM. Also, the CC50 is over 100 µM in the data set with PBMC, over 1 µM in “in vitro [1]”, 59 µM with Vero and 67 µM with CCRF-CEM. In addition, the EC50 in the data set on Hepatitis C virus came to 0.002 µM. The compound also returned an EC90 in the data set with Hepatitis C virus of 0.009 µM.

Source of the values: ChEMBL document CHEMBL2346553, “Synthesis and evaluation of non-dimeric HCV NS5A inhibitors” (Bioorg Med Chem Lett, 2013).
